Source: ChEMBL document CHEMBL5614461, “Design, synthesis and biological evaluation of indazole derivatives as VEGFR-2 kinase inhibitors with anti-angiogenic properties” (Eur J Med Chem, 2024)

Legend:
[1] = in vivo; settings: male, Sprague-Dawley, rat, iv, 1 mg/kg
[2] = in vivo; settings: male, Sprague-Dawley, rat, po, 10 mg/kg
[3] = in vivo; settings: male, Sprague-Dawley, rat, po, 10 mg/kg; remark: listed apart in the source
[4] = in vivo; settings: male, Sprague-Dawley, rat, iv, 1 mg/kg; remark: listed apart in the source
[5] = in vivo; settings: male, Sprague-Dawley, rat, po, 10 mg/kg; remark: listed apart in the source
[6] = in vivo; settings: male, Sprague-Dawley, rat, po, 10 mg/kg; remark: listed apart in the source
[7] = in vivo; settings: male, Sprague-Dawley, rat, iv, 1 mg/kg; remark: listed apart in the source
[8] = in vivo; settings: male, Sprague-Dawley, rat, iv, 1 mg/kg; remark: listed apart in the source

Compound: O=C(Cc1ccccc1F)Nc1cccc(Sc2ccc3c(/C=C/c4ccccn4)n[nH]c3c2)c1
- MRT last at 24 h [1]: 1.62 h
- Cmax at 24 h [2]: 484 ng/mL
- MRT last at 24 h [3]: 2.73 h
- Tmax at 24 h [4]: 1.8 min
- Tmax at 24 h [5]: 1.67 h
- AUC(0-t) at 24 h [6]: 1670 ng·h/mL
- Cmax at 24 h [7]: 1470 ng/mL
- AUC(0-t) at 24 h [8]: 1590 ng·h/mL
